# Source: US20220274947A1, “NOVEL HETEROARYL-TRIAZOLE COMPOUNDS AS PESTICIDES” (Bayer Aktiengesellschaft, priority 2019, published 2022)
# Legend:
# Type in all cases: in vivo
# Rhipicephalus microplus [1] = test: Rhipicephalus (Boophilus) microplus injection test (BOOPMI Inj); conditions: 168 h, injection into adult engorged female ticks, egg deposition after 7 days, read-out: activity (efficacy: 100% means all eggs are infertile); for pest or weed control at 0.004 mg: application rate 4 μg/tick; for pest or weed control at 0.02 mg: application rate 20 μg/tick
# Method in brief: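 Compound in DMSO, 1 μL, injected abdominally into five adult engorged females, which were then held in a climate chamber. Read-out is egg fertility, scored from deposition at 7 days, with unclear eggs followed to hatching (~42 days); 0% means all eggs fertile, 100% all infertile.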
# Rhipicephalus microplus [2] = test: Rhipicephalus (Boophilus) microplus in-vitro contact test, larval cattle tick, strain Parkhurst (BOOPMI Cont); conditions: application rate 5 μg/cm^2 (=500 g/ha), tick larvae, after 48 hours, read-out: activity (efficacy: 100% means all larvae are dead or moribund)
# Method in brief: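 After 48 h at 27° C. and 85% humidity, percent dead or moribund larvae was scored from negative geotactic behaviour. Larvae (20-50, Parkhurst strain, synthetic pyrethroid-resistant) were exposed in tubes coated with compound from acetone, 900 ppm corresponding to 5 μg/cm^2.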
# Ctenocephalides felis = Ctenocephalides felis in-vitro contact test, adult cat flea (CTECFE Cont); conditions: application rate 5 μg/cm^2 (=500 g/ha), adult cat fleas, after 48 hours, read-out: activity (efficacy: 100% means all fleas are dead or moribund)
# Method in brief: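 Efficacy, as percent of fleas dead or moribund, was scored 48 h after adults (5-10 per tube) were placed in glass tubes whose walls carried dried compound at 5 μg/cm^2 (900 ppm solution). Moribund meant failing to climb away from a 45-50° C. hot plate within 5 min.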
# Diabrotica balteata = Diabrotica balteata spray test; conditions: 168 h, wheat seeds, larvae, after 7 days, read-out: activity (efficacy: 100% means all seedlings have grown up like in the untreated, uninfected control); for pest or weed control at 160 µg/disc, 500 g/ha: application rate 500 g/ha (=160 μg/well); for pest or weed control at 32 µg/disc, 100 g/ha: application rate 100 g/ha (=32 μg/well)
# Method in brief: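 Efficacy (%) was scored 7 days after spraying, with 100% meaning growth like the untreated, uninfected control and 0% meaning no seedling grew. Spray solutions of compound in acetone/DMF with emulsifier-containing water went onto 1-day-germinated wheat seeds, and each unit was then infested with 10-20 banded cucumber beetle larvae.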
# Spodoptera frugiperda = Spodoptera frugiperda spray test; conditions: in Zea mays, 168 h, read-out: activity (mortality)
# Method in brief: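 Percent kill of fall armyworm caterpillars was assessed 7 days after infesting dried, treated maize leaf sections. Treatment was a spray of compound in acetone/dimethylformamide, diluted with water containing emulsifier at 1000 ppm.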
# Nezara viridula = Nezara viridula spray test; conditions: in Hordeum vulgare, 96 h, barley plants, larvae, after 4 days; for mortality at 500 g/ha: application rate 500 g/ha; for mortality at 100 g/ha: application rate 100 g/ha
# Method in brief: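 Mortality was read at day 4 (0% = no kill, 100% = total kill) after spraying larva-infested barley plants. Test solutions were made from an acetone/DMF concentrate diluted with water holding 1000 ppm alkylarylpolyglycol ether emulsifier.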
# Myzus persicae = Myzus persicae spray test; conditions: in Brassica rapa, foliar, 120 h, read-out: activity (mortality), application rate 100 g/ha, spray, Chinese cabbage leaf disks, after 5 days
# Method in brief: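 Aphid mortality in % was assessed 5 days after spraying; leaf disks of Brassica pekinensis carrying mixed-instar green peach aphids were treated. Spray preparation: active compound in acetone plus dimethylformamide, diluted with emulsifier-containing water (1000 ppm).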
SMILES,pest or weed control at 0.004 mg (Rhipicephalus microplus [1]),pest or weed control at 0.02 mg (Rhipicephalus microplus [1]),pest or weed control at 5 µg/cm2 (Rhipicephalus microplus [2]),pest or weed control at 5 µg/cm2 (Ctenocephalides felis),"pest or weed control at 160 µg/disc, 500 g/ha (Diabrotica balteata)",mortality at 500 g/ha (Spodoptera frugiperda),"pest or weed control at 32 µg/disc, 100 g/ha (Diabrotica balteata)",mortality at 500 g/ha (Nezara viridula),mortality at 100 g/ha (Nezara viridula),mortality at 100 g/ha (Spodoptera frugiperda),mortality at 100 g/ha (Myzus persicae)
CC(=O)Nc1ccnc(-n2ncnc2[C@H](C)NC(=O)c2cc(Cl)cc(OC(F)(F)F)c2)c1 [II-22],100%,100%,80%,100%,100%,83%,–,–,–,–,–
C[C@H](NC(=O)c1cc(Cl)cc(C(F)(F)F)c1)c1ncnn1-c1cc(N)ccn1 [II-28],100%,100%,90%,100%,100%,100%,100%,90%,–,–,–
C[C@H](NC(=O)c1cc(Cl)cc(OC(F)(F)F)c1)c1ncnn1-c1ncc(OC(F)F)cn1 [II-30],100%,100%,100%,100%,100%,100%,100%,100%,100%,100%,–
C[C@H](NC(=O)c1cc(C(F)(F)F)cc(C(F)(F)F)c1)c1ncnn1-c1ncc(Br)s1 [II-41],100%,100%,100%,–,100%,–,100%,–,90%,100%,–
C[C@H](NC(=O)c1cc(Cl)cc(C(F)(F)F)c1)c1ncnn1-c1cc(-n2cncn2)ccn1 [II-43],100%,100%,100%,100%,100%,100%,100%,–,–,100%,–
Cc1nc([C@H](C)NC(=O)c2cc(Cl)cc(Br)c2)n(-c2ccc(C#N)cn2)n1 [II-50],100%,100%,100%,100%,–,–,100%,–,–,100%,100%
Cc1nc([C@H](C)NC(=O)c2cc(Br)cc(Br)c2)n(-c2ccc(C#N)cn2)n1 [II-52],100%,100%,100%,100%,–,–,100%,–,–,100%,90%
Cc1nc([C@H](C)NC(=O)c2cc(Br)cc(C#N)c2)n(-c2ccc(C#N)cn2)n1 [II-54],100%,100%,100%,100%,–,–,100%,–,–,100%,90%
C[C@H](NC(=O)c1cc(Br)cc(C(F)F)c1)c1ncnn1-c1ccc(C#N)cn1 [II-83],100%,–,90%,100%,–,–,100%,–,–,100%,90%
Cc1nc([C@H](C)NC(=O)c2cc(C(F)(F)F)cc(C(F)(F)F)c2)n(-c2ccc(C(=O)N(C)C3CC3)cn2)n1 [II-96],100%,–,100%,100%,–,–,100%,–,–,100%,90%
C[C@H](NC(=O)c1cc(OC(F)(F)F)cc(C(F)F)c1)c1ncnn1-c1ccc(C#N)cn1 [II-111],100%,–,100%,100%,–,–,100%,–,100%,100%,–
